Experimental data taken from patent EP0654028B1, “3- AND 5-SUBSTITUTED 1,2,3,4-OXATRIAZOLE-5-IMINE COMPOUNDS, A PROCESS FOR THE PREPARATION THEREOF, A PHARMACEUTICAL PREPARATION CONTAINING SAID COMPOUNDS AND THE USE OF SAID COMPOUNDS FOR THE PREPARATION OF MEDICAMENTS” (A/S GEA Farmaceutisk Fabrik, priority 1992, dated 1994).

test system: blood platelets (thrombocytes); experiment: Inhibition of ADP-induced blood platelet aggregation in platelet-rich plasma (aggregometer measurement, Born); type: cell-based, healthy testees; conditions: not given

SMILES	inhibition of blood platelet aggregation (result in words)
O=[N+]([O-])OCC(CO[N+](=O)[O-])O[N+](=O)[O-] [GTN, nitroglycerine, reference compound]	inactive

same assay, conditions: PRP from citrate stabilized venous blood, 37°C, test substance incubated three minutes, ADP 2 to 4 µM as pro-aggregating substance; linear regression; read-out: IC₅₀

IC50	SMILES
160 nM	CCOC(=O)NC(=O)[N-]c1n[n+](-c2cccc(Cl)c2C)no1 [Example 7, 3-(3-chloro-2-methylphenyl)-1,2,3,4-oxatriazole-5-(N-carbethoxy-carbamoyl)imine]
2310 nM	COC(=O)C(C)NC(=O)[N-]c1n[n+](-c2cccc(Cl)c2C)no1 (stereo not shown) [Example 10, 3-(3-chloro-2-methylpheny1)-1,2,3,4-oxatriazole-5-(N-2-carbamoylpropionic acid methyl ester)imine]
1010 nM	CC(=O)Nc1ccc(S(=O)(=O)[N-]c2n[n+](-c3cccc(Cl)c3C)no2)cc1 [Example 3, 3-(3-chloro-2-methylphenyl)-1,2,3,4-oxatriazole-5-(N-4-acetylaminophenylsulphamoyl)imine]
2980 nM	CCOC(=O)c1ccc(NC(=O)[N-]c2n[n+](-c3cccc(Cl)c3C)no2)cc1 [Example 5, 3-(3-chloro-2-methylphenyl)-1,2,3,4-oxatriazole-5-(N-4-carbethoxyphenylcarbamoyl)imine]
7900 nM	CCOC(=O)C(Cc1ccccc1)NC(=O)[N-]c1n[n+](-c2cccc(Cl)c2C)no1 (stereo not shown) [Example 9, 3-(3-chloro-2-methylphenyl)-1,2,3,4-oxatriazole-5(N-2-carbamoyl-3-phenylpropionic acid ethyl ester)imine]
80 nM	Cc1c(Cl)cccc1-[n+]1noc([N-]S(=O)(=O)C[C@]23CCC(CC2=O)C3(C)C)n1 [Example 4, 3-(3-chloro-2-methylphenyl)-1,2,3,4-oxatriazole-5-(N-(1S)-(+)-10-camphorylsulphamoyl)imine]
370 nM	CC(=O)Nc1nc(C)c(S(=O)(=O)[N-]c2n[n+](-c3cccc(Cl)c3C)no2)s1 [Example 2, 3-(3-chloro-2-methylphenyl)-1,2,3,4-oxatriazole-5-(N-2-acetamido-4-methyl-5-thiazolesulphamoyl)imine]
3900 nM	[NH-]c1c[n+](N2CCOCC2)no1 [SIN-1, reference compound]

SMILES	IC50
CCOC(=O)CNC(=O)[N-]c1n[n+](-c2cccc(Cl)c2C)no1 [Example 8, 3-(3-chloro-2-methylphenyl)-1,2,3,4-oxatriazole-5-(N-carbethoxymethylcarbamoyl)imine]	7600 nM
Cc1c(Cl)cccc1-[n+]1noc([N-]C(=O)NS(=O)(=O)c2ccccc2)n1 [Example 1, 3-(3-chloro-2-methylphenyl)-1,2,3,4-oxatriazole-5-(N-phenylsulphonylcarbamoyl) imine]	490 nM

same assay, conditions: read-out: IC₅₀

SMILES	IC50
COc1ccc(S(=O)(=O)NC(=O)[N-]c2n[n+](-c3cccc(Cl)c3C)no2)cc1 [Example 6, 3-(3-chloro-2-methylphenyl)-1,2,3,4-oxatriazole-5-(N-4-methoxy-phenylsulphonylcarbamoyl)imine]	670 nM
O=[N+]([O-])OCC(CO[N+](=O)[O-])O[N+](=O)[O-] [GTN, nitroglycerine, reference compound]	100000 nM
